The compounds below were run against Anti-alpha galactosyl IgG antibody (assay: ELISA assay: streptavidin-captured biotin compound, binding of anti-alpha galactosyl IgG antibody). Details: geometric mean with standard error in brackets; streptavidin plate, anti-alpha galactosyl IgG 0.5 μg/mL; read-out: Concentration at half maximal binding.
Design: species or system human
Description: Compounds containing F (representing a carbohydrate molecule capable of binding to a human anti-alpha-galactosyl antibody) and L (as biotin) were assayed for binding at both ends of the compound using an enzyme-linked immunosorbent assay (ELISA). Streptavidin-coated plates captured biotin to the surface of the plate and the binding of anti-alpha galactosyl antibodies to the alpha-galactosyl moiety was reported by a secondary antibody labelled with HRP (Horse Radish Peroxidase).
Compounds were titrated 1.5 fold from a top dose of 50 nM in phosphate buffered saline (PBS) (Sigma D8537)+0.025% DMSO (Dimethyl Sulphoxide, Sigma D8418). Streptavidin immobilizer 96-well plates (nunc 436014) were coated with 100 μL of compound at room temperature for 2 hours shaking at 500 rpm. Plates were washed with 2×200 μL PBS-T (PBS with 0.05% Tween 20 (Sigma P9416)) and 1×200 μL PBS-T with a 5 minute incubation shaking at room temperature, prior to being blocked for 1 hour at room temperature with 1% Bovine Serum Albumin (BSA, Sigma A2153) in PBS-T. After removing the blocking buffer, 50 μL of Anti-alpha galactosyl IgG antibody (Anti-alpha-galactosyl antibody was purified from human IVIG (Gammagard) by affinity purification using an alpha-galactosyl-HSA (Human Serum Albumin) sepharose column by Rockland Immunochemicals Inc.) at 0.5 μg/mL in PBS-T+1% BSA and incubated shaking at room temperature for 1 hour.
Plates were washed 2×200 μL PBS-T and 3×200 μL PBS-T with a 5 minute incubation, shaking at room temperature before the addition of 50 μL 1:5000 Goat Anti-Human IgG-HRP (horseradish peroxidase) conjugate (Abcam ab97175). The plates were incubated shaking at room temperature for 1 hour before a final wash of 2×200 μL PBS-T and 3×200 μl PBS-T with a 5 minute incubation shaking at room temperature. 100 μL TMB buffer (3,3′,5,5′-tetramethylbenzidine, a chromogenic substrate for horseradish peroxidase) (Pierce 34021) was added to the plate and allowed to develop for 5-10 minutes before the samples were quenched with 50 μL 2M sulfuric acid (Sigma 258105). The absorbance was read at 450 nm on an Envision plate reader (Perkin Elmer). Results from wells (duplicate) were averaged and the 50% binding affinity calculated.
The concentration at which half-maximal binding is achieved is reported as a geometric mean with standard error in brackets. The number of independent experiments is also reported. In order to achieve a signal both ends of the molecule are required to bind (biotin to streptavidin and alpha-galactosyl to anti-alpha galactosyl antibodies) simultaneously.
`CC(=O)N[C@H]1[C@H](OCCCNC(=O)CCOCCOCCOCCOCCNC(=O)COc2ccc(-c3cccc(C(=O)NCCNC(=O)CCOCCOCCOCCOCCOCCOCCOCCOCCOCCOCCOCCOCCNC(=O)CCCC[C@@H]4SC[C@@H]5NC(=O)N[C@@H]54)c3)cc2)O[C@H](CO)[C@@H](O[C@@H]2O[C@H](CO)[C@H](O)[C@H](O[C@H]3O[C@H](CO)[C@H](O)[C@H](O)[C@H]3O)[C@H]2O)[C@@H]1O` [Example 52] was tested, and the EC50 was 34.9 nM. `CC(=O)N[C@H]1[C@H](OCCCNC(=O)COc2cc(OCC(=O)NCCCO[C@@H]3O[C@H](CO)[C@@H](O[C@@H]4O[C@H](CO)[C@H](O)[C@H](O[C@H]5O[C@H](CO)[C@H](O)[C@H](O)[C@H]5O)[C@H]4O)[C@H](O)[C@H]3NC(C)=O)cc(-c3cc(C(=O)NCCNC(=O)CCCC[C@@H]4SC[C@@H]5NC(=O)N[C@@H]54)cc(-c4cc(OCC(=O)NCCCO[C@@H]5O[C@H](CO)[C@@H](O[C@@H]6O[C@H](CO)[C@H](O)[C@H](O[C@H]7O[C@H](CO)[C@H](O)[C@H](O)[C@H]7O)[C@H]6O)[C@H](O)[C@H]5NC(C)=O)cc(OCC(=O)NCCCO[C@@H]5O[C@H](CO)[C@@H](O[C@@H]6O[C@H](CO)[C@H](O)[C@H](O[C@H]7O[C@H](CO)[C@H](O)[C@H](O)[C@H]7O)[C@H]6O)[C@H](O)[C@H]5NC(C)=O)c4)c3)c2)O[C@H](CO)[C@@H](O[C@@H]2O[C@H](CO)[C@H](O)[C@H](O[C@H]3O[C@H](CO)[C@H](O)[C@H](O)[C@H]3O)[C@H]2O)[C@@H]1O` [Example 62] showed an EC50 of 20.7 nM. With `CC(=O)N[C@H]1[C@H](OCCCNC(=O)CCOCCOCCOCCOCCOCCOCCOCCOCCOCCOCCOCCOCCNC(=O)COc2cccc(C(=O)NCCNC(=O)CCOCCOCCOCCOCCOCCOCCOCCOCCOCCOCCOCCOCCNC(=O)CCCC[C@@H]3SC[C@@H]4NC(=O)N[C@@H]43)c2)O[C@H](CO)[C@@H](O[C@@H]2O[C@H](CO)[C@H](O)[C@H](O[C@H]3O[C@H](CO)[C@H](O)[C@H](O)[C@H]3O)[C@H]2O)[C@@H]1O` [Example 50] the EC50 was 26.1 nM. `CC(=O)N[C@H]1[C@H](OCCCNC(=O)COc2cc(OCC(=O)NCCCO[C@@H]3O[C@H](CO)[C@@H](O[C@@H]4O[C@H](CO)[C@H](O)[C@H](O[C@H]5O[C@H](CO)[C@H](O)[C@H](O)[C@H]5O)[C@H]4O)[C@H](O)[C@H]3NC(C)=O)cc(-c3cccc(-c4cccc(C(=O)NCCNC(=O)CCCC[C@@H]5SC[C@@H]6NC(=O)N[C@@H]65)c4)c3)c2)O[C@H](CO)[C@@H](O[C@@H]2O[C@H](CO)[C@H](O)[C@H](O[C@H]3O[C@H](CO)[C@H](O)[C@H](O)[C@H]3O)[C@H]2O)[C@@H]1O` [Example 61] gave an EC50 of 29.9 nM. `CC(=O)NC1C(OCCCNC(=O)CCOCCOCCOCCOCCNC(=O)COc2cccc(C(=O)NCCNC(=O)CCOCCOCCOCCOCCOCCOCCOCCOCCOCCOCCOCCOCCNC(=O)CCCCC3SCC4NC(=O)NC43)c2)OC(CO)C(OC2OC(CO)C(O)C(OC3OC(CO)C(O)C(O)C3O)C2O)C1O` (stereo not drawn) [Example 19] gave an EC50 of 11.8 nM. In the case of `CC(=O)NC1C(OCCCNC(=O)CCOCCOCCOCCOCCOCCOCCOCCOCCOCCOCCOCCOCCNC(=O)COc2ccc(-c3cc(OCC(=O)NCCOCCOCCOCCOCCOCCOCCOCCOCCOCCOCCOCCOCCC(=O)NCCCOC4OC(CO)C(OC5OC(CO)C(O)C(OC6OC(CO)C(O)C(O)C6O)C5O)C(O)C4NC(C)=O)cc(C(=O)NCCNC(=O)CCCCC4SCC5NC(=O)NC54)c3)cc2)OC(CO)C(OC2OC(CO)C(O)C(OC3OC(CO)C(O)C(O)C3O)C2O)C1O` (stereo not drawn) [Example 49], the EC50 is reported as 26.4 nM. Compound `CC(=O)N[C@H]1[C@H](OCCCNC(=O)COc2ccc(-c3cccc(C(=O)NCCNC(=O)CCCC[C@@H]4SC[C@@H]5NC(=O)N[C@@H]54)c3)cc2)O[C@H](CO)[C@@H](O[C@@H]2O[C@H](CO)[C@H](O)[C@H](O[C@H]3O[C@H](CO)[C@H](O)[C@H](O)[C@H]3O)[C@H]2O)[C@@H]1O` [Example 11] has an EC50 of 19 nM. `CC(=O)N[C@H]1[C@H](OCCCNC(=O)COc2ccc(-c3cc(OCC(=O)NCCCO[C@@H]4O[C@H](CO)[C@@H](O[C@@H]5O[C@H](CO)[C@H](O)[C@H](O[C@H]6O[C@H](CO)[C@H](O)[C@H](O)[C@H]6O)[C@H]5O)[C@H](O)[C@H]4NC(C)=O)cc(C(=O)NCCNC(=O)CCCC[C@@H]4SC[C@@H]5NC(=O)N[C@@H]54)c3)cc2)O[C@H](CO)[C@@H](O[C@@H]2O[C@H](CO)[C@H](O)[C@H](O[C@H]3O[C@H](CO)[C@H](O)[C@H](O)[C@H]3O)[C@H]2O)[C@@H]1O` [Example 7] gave an EC50 of 16 nM. For `CC(=O)NC1C(OCCCNC(=O)CCOCCOCCOCCOCCNC(=O)COc2cc(OCC(=O)NCCOCCOCCOCCOCCC(=O)NCCCOC3OC(CO)C(OC4OC(CO)C(O)C(OC5OC(CO)C(O)C(O)C5O)C4O)C(O)C3NC(C)=O)cc(-c3cc(OCC(=O)NCCOCCOCCOCCOCCC(=O)NCCCOC4OC(CO)C(OC5OC(CO)C(O)C(OC6OC(CO)C(O)C(O)C6O)C5O)C(O)C4NC(C)=O)cc(C(=O)NCCNC(=O)CCCCC4SCC5NC(=O)NC54)c3)c2)OC(CO)C(OC2OC(CO)C(O)C(OC3OC(CO)C(O)C(O)C3O)C2O)C1O` (stereo not drawn) [Example 18], the EC50 was 6.7 nM. With `CC(=O)N[C@H]1[C@H](OCCCNC(=O)COc2cccc(C(=O)NCCNC(=O)CCCC[C@@H]3SC[C@@H]4NC(=O)N[C@@H]43)c2)O[C@H](CO)[C@@H](O[C@@H]2O[C@H](CO)[C@H](O)[C@H](O[C@H]3O[C@H](CO)[C@H](O)[C@H](O)[C@H]3O)[C@H]2O)[C@@H]1O` [Example 2, 3-(2-((3-(((2R,3R,4R,5S,6R)-3-Acetamido-5-(((2S,3R,4S,5S,6R)-3,5-dihydroxy-6-(hydroxymethyl)-4-(((2R,3R,4S,5R,6R)-3,4,5-trihydroxy-6-(hydroxymethyl)tetrahydro-2H-pyran-2-yl)oxy)tetrahydro-2H-pyran-2-yl)oxy)-4-hydroxy-6-(hydroxymethyl)tetrahydro-2H-pyran-2-yl)oxy)propyl)amino)-2-oxoethoxy)-N-(2-(5-((3aS,4S,6aR)-2-oxohexahydro-1H-thieno[3,4-d]imidazol-4-yl)pentanamido)ethyl)benzamide] the EC50 was 21.2 nM. With `CC(=O)N[C@H]1[C@H](OCCCNC(=O)COc2cc(C(=O)NCCNC(=O)CCCC[C@@H]3SC[C@@H]4NC(=O)N[C@@H]43)nc3ccccc23)O[C@H](CO)[C@@H](O[C@@H]2O[C@H](CO)[C@H](O)[C@H](O[C@H]3O[C@H](CO)[C@H](O)[C@H](O)[C@H]3O)[C@H]2O)[C@@H]1O` [Example 10, 4-(2-((3-(((2R,3R,4R,5S,6R)-3-Acetamido-5-(((2S,3R,4S,5S,6R)-3,5-dihydroxy-6-(hydroxymethyl)-4-(((2R,3R,4S,5R,6R)-3,4,5-trihydroxy-6-(hydroxymethyl)tetrahydro-2H-pyran-2-yl)oxy)tetrahydro-2H-pyran-2-yl)oxy)-4-hydroxy-6-(hydroxymethyl)tetrahydro-2H-pyran-2-yl)oxy)propyl)amino)-2-oxoethoxy)-N-(2-(5-((3aS,4S,6aR)-2-oxohexahydro-1H-thieno[3,4-d]imidazol-4-yl)pentanamido)ethyl)quinoline-2-carboxamide] the EC50 was 25.7 nM. With `CC(=O)NC1C(OCCCNC(=O)CCCNC(=O)CCOCCOCCOCCOCCNC(=O)COc2cc(OCC(=O)NCCOCCOCCOCCOCCC(=O)NCCCC(=O)NCCCOC3OC(CO)C(OC4OC(CO)C(O)C(OC5OC(CO)C(O)C(O)C5O)C4O)C(O)C3NC(C)=O)cc(-c3cc(OCC(=O)NCCOCCOCCOCCOCCC(=O)NCCCC(=O)NCCCOC4OC(CO)C(OC5OC(CO)C(O)C(OC6OC(CO)C(O)C(O)C6O)C5O)C(O)C4NC(C)=O)cc(C(=O)NCCNC(=O)CCCCC4SCC5NC(=O)NC54)c3)c2)OC(CO)C(OC2OC(CO)C(O)C(OC3OC(CO)C(O)C(O)C3O)C2O)C1O` (stereo not drawn) [Example 59] the EC50 was 21.3 nM.
